Results as given in patent US10239893B2, “Controlling the isomerization rate of Azo-BF2 switches using aggregation” (THE TRUSTEES OF DARTMOUTH COLLEGE, priority 2013, dated 2019).
Several values for one entry are separate records, joined by “and”; a condition that tells them apart may be missing. Equal entries are not always repeated.

Columns and labels:
[1] = Thermal cis→trans relaxation followed by 1H NMR in CD2Cl2; type: physicochemical; settings: CD2Cl2 at 294 K, starting from PSS710
Excerpt: Unaltered CD2Cl2 solution of compound 4 in a quartz NMR tube was irradiated at 710 nm until its photostationary state was reached.

[2] = Isomer ratios under dark and at photostationary states by 1H NMR; type: physicochemical; settings: for PSS isomer ratio, cis, irradiation at 710 nm (PSS710): lowest estimation because of fast thermal relaxation
Method: ^1H NMR spectroscopy was employed to evaluate the photo-switching efficiency of 10 in CD2Cl2 (0.53 mM).
[…] The LEDs were affixed in a custom irradiation chamber fitted with a cooling fan to maintain ambient temperature. The light intensities at 430 and 600 nm were determined using chemical actinometry^S1 and a Thorlabs optical power meter, respectively. Photoisomerization quantum yields were measured by monitoring the proton integral change in trans/cis isomers after 430 and 600 nm irradiation for 2 and 20 s, respectively. Each quantum yield measurement was repeated three times under the same conditions. The photostationary states (PSS) were determined upon continuous irradiation until no further isomerization was observed using ^1H NMR spectroscopy. PBS buffer is an aqueous solution prepared by dissolving Na2HPO4 (1.420 g), KH2PO4 (0.245 g) NaCl (8.007 g) and KCl (0.201 g) in 1 L deionized water.

[3] = Stability (hydrolysis) in acetonitrile:PBS buffer (1:1), followed by UV-Vis; type: physicochemical; settings: acetonitrile:PBS (1:1), 25° C.
Method: (§1) The stability of the switches in an aqueous environment was tested by conducting multiple switching cycles (10 cycles shown in FIG. 22a) of 4 in an acetonitrile:PBS buffer (1:1) mixed solvent system. These experiments were conducted by irradiating the sample using 710 nm light, followed by thermal relaxation under dark. […] The stability of switch 4 to reduction by glutathione (GSH) was also tested. The switch was incubated in 10 mM reduced glutathione in acetonitrile:PBS buffer (1:1) solution.
All reagents and starting materials were purchased from commercial vendors and used without further purification. Column chromatography was performed on silica gel (Silicycle, 230-400 mesh). The melting points were measured on an Electrothermal 9100 instrument in open capillary tubes without thermometer correction. Deuterated solvents were purchased from Cambridge Isotope Laboratories and used as received. ^1H NMR and ^13C NMR spectra were recorded on a 500 MHz spectrometer, with working frequencies of 499.87 MHz for ^1H nuclei and 125.7 MHz for ^13C nuclei, respectively. ^19F NMR spectra were recorded on a 300 MHz spectrometer, with working frequency of 282.2 MHz for ^19F nuclei. Chemical shifts are expressed in ppm relative to tetramethylsilane, using the residual solvent peak as a reference standard. GC-MS spectra were measured on a Shimadzu Gas Chromatograph/Mass Spectrometer (GCMS-QP2010Plus). UV-Vis spectra were recorded on a Shimadzu UV-Vis spectrophotometer (UV-1800). Irradiation experiments were conducted with sufficient stirring using a Newport mercury lamp (67005-414) equipped with a Jarrell-Ash light monochromator. The 710 nm Near IR light source was built with appropriate LED light bulbs (LED710-lau AlGaAs Infrared LEDs purchased from Roithner Lasertechnik GmbH). PBS buffer is an aqueous solution prepared with 11.9 mM sodium phosphate (pH 7.3-7.4), 137 mM NaCl and 2.7 mM KCl.

[4] = Stability to reduction by glutathione, 10 mM GSH in acetonitrile:PBS buffer (1:1); type: physicochemical; settings: for degradation half-life with GSH: acetonitrile:PBS (1:1) with 10 mM GSH, 25° C.
Method: as §1

[5] = Reversibility of photoswitching over repeated irradiation cycles; type: physicochemical; settings: CH2Cl2, alternating visible light irradiation
Excerpt: The photoisomerization of Compound 1 was studied extensively by UV/vis (FIG. 1) spectroscopy. When stored in the dark, Compound 1 adopts its thermodynamically stable trans form that has an absorption maximum (λmax) at 530 nm (ε=8026 M^−1 cm^−1). Upon irradiation at 570 nm, the cis form (λmax=480 nm; £=7792 M^−1 cm^−1) becomes dominant, accompanied by a sharp color change of the solution from bright purple to light orange. The process is also accompanied by changes in the intensity of bands at higher energies (λmax=340 and 264 nm). Irradiation at 450 nm drives the system back to its trans form. […] The trans/cis isomerization can be activated solely by the use of visible light and there is no need for UV light.
The synthesis of the azo-BF2 complex 10 started from the hydrazone-based switch,^18 followed by the coupling reaction with BF3.OEt2^19 (Scheme 7). The product was fully characterized using NMR spectroscopy and mass spectrometry (FIGS. 62-76). […] Upon irradiation with a 600 nm light source, E to Z isomerization takes place (isosbestic points at 318, 406, and 508 nm) leading to a new band with a λmax at 501 nm, and e of 11209 M^−1·cm^−1 (FIGS. 58 and 81). The isomerization is accompanied with a significant color change of the solution from purple to dark orange (FIG. 58b).

[6] = Thermal cis→trans isomerization kinetics followed by UV/Vis in CH2Cl2; settings: deoxygenated CH2Cl2, 294 K, starting from cis PSS, average of three measurements
Method: The thermal isomerization process was monitored by measuring the change in absorption intensity at 480 nm as a function of time (at 1 min intervals).
The thermal isomerization process was monitored by measuring the change in absorption intensity at 594 nm as a function of time (at 1 min intervals).

Half-life, cis→trans thermal relaxation [1] [h] | trans isomer ratio under dark [2] [%] | PSS isomer ratio, cis, irradiation at 710 nm (PSS710) ([2]; CD2Cl2 at 294 K) | degradation (hydrolysis) half-life [3] [h] | degradation half-life with GSH [4] [h] | reversibility / degradation on repeated photoisomerization (in words) [5] | PSS isomer ratio, cis, irradiation at 630 nm (PSS630) ([2]; CD2Cl2 at 294 K) | SMILES | PSS isomer ratio, cis, irradiation at 640 nm (PSS640) ([2]; CD2Cl2 at 294 K) | PSS isomer ratio, trans, irradiation at 490 nm (PSS490) ([2]; CD2Cl2 at 294 K) | half-life (t1/2) of the cis→trans isomerization [6] [h] | stability to reduction by glutathione (in words) ([4]; 10 mM reduced glutathione in acetonitrile:PBS buffer (1:1))
0.111 | 94 | 49% and 49±1% | 1.2 | 1.3 |  |  | CN1CCN(c2ccc(N=[N+]3C(C#N)=C4C=Cc5ccccc5N4[B-]3(F)F)cc2)CC1 [Compound 6] |  |  |  | 
0.0417 | 98 |  | 2 | 2.1 |  |  | N#CC1=C2C=Cc3ccccc3N2[B-](F)(F)[N+]1=Nc1ccc(N2CCCCC2)cc1 [Compound 5] |  |  |  | 
 |  |  |  |  | no degradation |  | N#CC1=C2C=Cc3ccccc3N2[B-](F)(F)[N+]1=Nc1ccccc1 [Compound 1] |  |  |  | 
0.25 | 97 | 83% and 82±1% | 0.9 | 1.0 |  |  | N#CC1=C2C=Cc3ccccc3N2[B-](F)(F)[N+]1=Nc1ccc(N2CCOCC2)cc1 [Compound 7] |  |  |  | 
 | 93 |  |  |  |  | 96% and 96±1% | COc1ccc(N=[N+]2C(C#N)=C3C=Cc4ccccc4N3[B-]2(F)F)cc1 [Compound 2] |  | 92% and 92±1% |  | 
0.0694 | 97 | 63% and 63±1% | 2.3 | 2.5 |  |  | CN(C)c1ccc(N=[N+]2C(C#N)=C3C=Cc4ccccc4N3[B-]2(F)F)cc1 [Compound 4] |  |  |  | No obvious difference was observed in its degradation half-life

SMILES | Half-life, cis→trans thermal relaxation [1] [h] | trans isomer ratio under dark [2] [%] | PSS isomer ratio, cis, irradiation at 710 nm (PSS710) ([2]; CD2Cl2 at 294 K) | degradation (hydrolysis) half-life [3] [h] | degradation half-life with GSH [4] [h] | reversibility / degradation on repeated photoisomerization (in words) [5] | PSS isomer ratio, cis, irradiation at 630 nm (PSS630) ([2]; CD2Cl2 at 294 K) | PSS isomer ratio, cis, irradiation at 640 nm (PSS640) ([2]; CD2Cl2 at 294 K) | PSS isomer ratio, trans, irradiation at 490 nm (PSS490) ([2]; CD2Cl2 at 294 K) | half-life (t1/2) of the cis→trans isomerization [6] [h] | stability to reduction by glutathione (in words) ([4]; 10 mM reduced glutathione in acetonitrile:PBS buffer (1:1))
COc1ccc(N=[N+]2C(C#N)=C3C=Cc4ccccc4N3[B-]2(F)F)c(OC)c1 [Compound 3] |  | 58 |  |  |  |  |  | 79% and 79±1% | 56% and 56±1% | 13.4 | 
